Assays:
[1] = Inhibition of PDE9
[2] = biological target: High affinity cGMP-specific 3',5'-cyclic phosphodiesterase 9A (Homo sapiens, UniProt O76083); assay: Inhibition of human PDE9A expressed in Escherichia coli BL21 by liquid scintillation counting
Sequence of High affinity cGMP-specific 3',5'-cyclic phosphodiesterase 9A (O76083 whole entry): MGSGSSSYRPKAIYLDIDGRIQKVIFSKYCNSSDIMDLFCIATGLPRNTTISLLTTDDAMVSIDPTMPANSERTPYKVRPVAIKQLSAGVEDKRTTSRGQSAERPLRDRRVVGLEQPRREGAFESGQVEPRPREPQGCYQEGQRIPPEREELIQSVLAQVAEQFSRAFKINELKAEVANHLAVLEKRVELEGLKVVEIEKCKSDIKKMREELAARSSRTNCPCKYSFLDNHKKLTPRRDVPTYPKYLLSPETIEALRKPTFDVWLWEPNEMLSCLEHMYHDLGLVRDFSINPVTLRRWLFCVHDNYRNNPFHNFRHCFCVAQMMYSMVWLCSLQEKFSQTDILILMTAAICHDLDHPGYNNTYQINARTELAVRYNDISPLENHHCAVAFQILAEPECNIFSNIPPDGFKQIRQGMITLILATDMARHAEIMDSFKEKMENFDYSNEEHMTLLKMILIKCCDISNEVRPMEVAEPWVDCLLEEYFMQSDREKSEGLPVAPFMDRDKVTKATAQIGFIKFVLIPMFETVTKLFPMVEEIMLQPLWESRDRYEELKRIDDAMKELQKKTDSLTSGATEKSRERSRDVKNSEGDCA

Row | Structure (SMILES) | IC50 [1] [µM] | IC50 [2] [µM]
1 | C[C@H](Cc1nc2c(cnn2-c2ccccc2Cl)c(=O)[nH]1)C(F)(F)F | 0.055 | –
2 | CC(C)Cn1c(=O)n(C)c(=O)c2[nH]cnc21 [ISOBUTYLMETHYLXANTHINE] | – | > 200

Reference: ChEMBL document CHEMBL1154916, “Insight into binding of phosphodiesterase-9A selective inhibitors by crystal structures and mutagenesis” (J Med Chem, 2010)
